Measurements published in patent EP0603240B1, “SAFENING HERBICIDAL PYRAZOLYLSULFONYLUREAS” (priority 1991, dated 1993).

Tests used:
corn [1] = assay: Example 25, greenhouse preemergence test: Antidote Nos. 1 and 2 against Herbicide Nos. 1-3; format: in vivo, Corn (Pioneer 3424 variety); details: preemergence
Method: The chemicals were tested in both preemergence and post-emergence modes of application. The herbicides were prepared and applied as wettable powders; dichlormid was applied as an emulsifiable concentrate, while the naphthalic anhydride was applied as a coating on the corn seed prior to planting.
(§1) Test data from the preemergence tests are shown in Table 25A and from the post-emergence tests in Table 25B. In the tables, the concentration of chemicals is shown in terms of active ingredient in grams per hectare (G/ha); concentrations of the naphthalic anhydride were not measured per se, but were present as in conventional, normally-coated applications. Corn injury is shown in terms of percent inhibition of growth.

corn [2] = assay: Example 25, greenhouse post-emergence test: Antidote Nos. 1 and 2 against Herbicide Nos. 1-3; format: in vivo, Corn (Pioneer 3424 variety); details: Herbicide Nos. 1-3
Method: Additional tests were conducted in the greenhouse in order to evaluate the antidotal efficacy of Antidote Nos. 1 (dichlormid) and 2 (naphthalic anhydride) in protecting corn from the herbicidal activity of Herbicide Nos. 1-3 (i.e., NC-319, NC-319 EX and NC-311, respectively). The chemicals were tested in both preemergence and post-emergence modes of application. The herbicides were prepared and applied as wettable powders; dichlormid was applied as an emulsifiable concentrate, while the naphthalic anhydride was applied as a coating on the corn seed prior to planting.
Corn seeds (Pioneer 3424 variety) were planted in alluvial soil containing compost and fertilizer in pots 12 cm. in diameter. Test chemicals were applied with a spray gun at the spray volume rate of 11.2 l/ha at the time of seeding in the preemergence tests and seven (7) days after seeding in the post-emergence tests, when the check (control) plants were at the 16-20 cm., 3.0-3.2 leaf stage, and naphthalic anhydride coated seed grown plants were at the 14-16 cm., 2.8-3.0 leaf stage.
as §1

corn [3] = assay: Example 7, Procedure II: Herbicide No. 1 + metolachlor (No. 12) with antidotes; format: in vivo
Method: (§2) Containers were filled and compacted with a fumigated silt loam top soil to a depth of about 1.3 cm from the top of the container. A first container was designated as an untreated control, a second container was designated as a herbicide control, and a third container was designated as a herbicide + antidote test container. Each of the containers was seeded with a crop species. A measured amount of herbicide dispersed or dissolved in acetone was applied to a measured quantity of soil. To this same quantity of soil treated with herbicide, there was added a measured amount of antidote dispersed or dissolved in acetone. The quantity of soil treated with the herbicide and antidote was thoroughly mixed to incorporate the herbicide and antidote in the soil uniformly. The seed bed in the third container of soil was covered with the soil treated with the herbicide and antidote and the container was leveled. For each test series, the seed beds of the first and second containers were likewise covered by soil layers. the cover layer of the first container was not treated with herbicide or antidote.
(§3) The containers were then placed on a bench in a greenhouse and sub-irrigated as required for the duration of the test. […] Plant response is measured in terms of percent injury. Antidote efficacy is indicated as the difference in plant injury by the herbicide(s) without the antidote and with the antidote.
(§4) This procedure is the same as Procedure I, but modified in the manner that after incorporation of the chemicals (herbicide and antidote) the containers with the covered seedbed were treated with an initial overhead irrigation equivalent to 0.6 cm rainfall, then subsequently sub-irrigated as required on greenhouse benches.
(§5) In this example, Procedure II described above was followed. The data from the tests in this example is shown in Table 6 and represents averages of duplicate replications.
The tests in this example followed the same procedure and antidotes used in Example 6. However, Herbicide No. 12 (metolachlor) was used as the co-herbicide with Herbicide No. 1.

corn [4] = assay: Example 5, Procedure I: Herbicide No. 1 + alachlor (No. 7) with Antidote Nos. 15 and 16; format: in vivo; details: Herbicide No.1 6.72 + No.7 2.24 kg/ha + antidote 2.24 kg/ha
Method: as §2, §3
This example describes tests with Antidote Nos. 15 and 16 to safen Herbicide No. 1 according to Procedure I using corn and the weeds barnyardgrass and velvetleaf as the test plants.
In the tests described in this example, the same procedure described in Example 4 was performed simultaneously therewith and under the same conditions, except that a co-herbicide, alachlor, was included in the same composition with Herbicide No. 1 and Antidote Nos. 15 and 16. Alachlor (Herbicide No. 7 herein) is the active ingredient in the commercial product LASSO® herbicide.

corn [5] = assay: Example 9, Procedure II: Herbicide No. 1 + pretilachlor (No. 13) with antidotes; format: in vivo
Method: as §2, §3, §4
(§6) In this example the safening effect on a composition comprising Herbicide No. 1 and another leading rice herbicide, i.e., Herbicide No. 13, was investigated using the same antidotes and test procedure described in the preceding example. Herbicide No. 13 is pretilachlor, active ingredient used in the commercial rice herbicides RIFIT®, SOFIT® and SOFIT® SUPER.

corn [6] = assay: Example 11, Procedure II: Herbicide No. 1 + metazachlor (No. 14) with antidotes; format: in vivo; details: for safening of corn, assessment in words: Herbicides 1 and 14, Table 11
Method: as §2, §3, §4
(§7) In this example, yet another α-chloroacetanilide co-herbicide, metazachlor (Herbicide No. 14) was combined with Herbicide No. 1 for investigation of the effect of various safeners on that composition. Metazachlor is the active ingredient in the commercial herbicide BUTISAN® S, used here as a 500 g/L formulation.

corn [7] = assay: Example 19, Procedure II: Herbicide No. 1 + ERADICANE EXTRA with added antidotes; format: in vivo; details: for corn injury: Herbicide No. 1 + ERADICANE EXTRA + added antidote, highest rates of antidotes and herbicides
Method: as §2, §3, §4
(§8) In the test reported in this example, the herbicidal composition was similar to that used in Example 16 in that Herbicide No. 1 was combined with EPTC (Herbicide No. 4) as a co-herbicide and the antidotes included Nos. 1, 2, 7, 13 and 15. However, in this test the EPTC was introduced as a formulation of ERADICANE (EPTC + the antidote R-25788, i.e., Antidote No. 1) at an application rate of 8.96 kg/ha. Thus, in this test two antidotes were present, viz. R-25788 and one of the auxilliary antidotes, No. 2, 13 and 15.
The test reported in this example was performed in the same manner and with the same antidotes used in Example 18, the only difference being the substitution of the commercial herbicidal product ERADICANE® EXTRA for ERADICANE®. ERADICANE EXTRA is a formulation containing both an antidote, i.e., R-29148 (Antidote No. 5 herein), and an extender, dietholate.

corn [8] = assay: Example 12, Procedure II: Herbicide No. 1 + acetochlor (No. 6) with thirteen antidotes; format: in vivo
Method: as §2, §3, §4
This example was designed to investigate the efficacy of thirteen different antidotes from different classes of chemistry as safeners against compositions of Herbicide No. 1 and acetochlor (Herbicide No. 6) as co-herbicide. Acetochlor is the active ingredient in the commercial herbicides GUARDIAN® and WENNER®.
The test procedure used in this example was Procedure II described above.

corn [9] = assay: Example 15, Procedure II: Herbicide No. 1 + butylate (No. 10) with antidotes; format: in vivo; details: for safening of corn, assessment in words: Herbicide No. 1 1.12 and 0.56 kg/ha + Herbicide No. 10 6.72 kg/ha PPI, Table 15
Method: as §2, §3, §4
This example describes experiments designed to investigate the antidotal efficacy of a plurality of antidotes against the herbicidal action of a combination of Herbicide No. 1 and butylate in corn and the prevalent weeds barnyardgrass and velvetleaf. The antidotes used in these experiments were Nos. 1-10, 12, 13 and 15.
The test procedure used in these experiments was that of Procedure II described above. The antidotes were applied to a soil cover layer by pipet after spraying the herbicides onto the soil, followed by incorporation and overhead irrigation.

corn [10] = assay: Example 18, Procedure II: Herbicide No. 1 + ERADICANE (EPTC + R-25788) with auxiliary antidotes; format: in vivo; details: Herbicide No. 1 + ERADICANE 8.96 kg/ha, PPI, Table 18
Method: as §2, §3, §4, §8
Test procedures were those of Procedure II above.

corn [11] = assay: Example 6, Procedure II: Herbicide No. 1 + alachlor (No. 7) with antidotes; format: in vivo; details: Herbicides 1 and 7 applied PPI, Table 6
Method: as §2, §3, §4
This example was designed to investigate the antidotal efficacy of a plurality of antidotal compounds against a composition comprising Herbicide No. 1 in combination with Herbicide No. 7 (alachlor). The antidotal compounds used herein were Nos. 1, 2, 7, 13 and 15.
as §5

[12] = system: velvetleaf (Abutilon theophrasti); assay: Example 10, Procedure II: Herbicide No. 1 + propachlor (No. 5) with antidotes; format: in vivo; details: Herbicide No.5 4.48 kg/ha alone, no antidote
Method: as §2, §3, §4
(§9) In the series of greenhouse tests described below, for routine screening purposes the herbicide/antidote compositions were tested in crop/weed combinations involving corn as the crop and either or both of the weeds barnyardgrass (Echinochloa crusgalli), a monocotyledonous weed, and velvetleaf (Abutilon theophrasti), a dicotyledonous weed. In the tables below, these weeds are indicated by the symbols "BYG" and "VL", respectively.
(§10) In this test, the safening effect of various antidotes on the herbicidal combination of Herbicide No. 1 and another α-chloroacetanilide co-herbicide, propachlor, (Herbicide No. 5) was investigated. Propachlor is the active ingredient in the commercial herbicide RAMROD®. Procedure II was also used in this test as in the preceding example.

[13] = system: barnyardgrass (Echinochloa crusgalli); assay: as above; format: in vivo; details: Herbicide No.5 4.48 kg/ha alone, no antidote
Method: as §2, §3, §4, §9, §10

corn [14] = assay: as above; format: in vivo; details: Herbicide No.5 4.48 kg/ha alone, no antidote
Method: as §2, §3, §4, §10

[15] = system: velvetleaf (Abutilon theophrasti); assay: Example 9, Procedure II: Herbicide No. 1 + pretilachlor (No. 13) with antidotes; format: in vivo; details: Herbicide No.13 2.24 kg/ha alone, no antidote
Method: as §2, §3, §4, §9, §6

[16] = system: barnyardgrass (Echinochloa crusgalli); assay: as above; format: in vivo; details: Herbicide No.13 2.24 kg/ha alone, no antidote
Method: as §2, §3, §4, §9, §6

[17] = system: velvetleaf (Abutilon theophrasti); assay: Example 11, Procedure II: Herbicide No. 1 + metazachlor (No. 14) with antidotes; format: in vivo; details: Herbicide No.14 3.36 kg/ha alone, no antidote
Method: as §2, §3, §4, §9, §7

[18] = system: barnyardgrass (Echinochloa crusgalli); assay: as above; format: in vivo; details: Herbicide No.14 3.36 kg/ha alone, no antidote
Method: as §2, §3, §4, §9, §7

C=CCN(CC=C)C(=O)C(Cl)Cl [Antidote No. 1, Acetamide, N,N-bis(2-propenyl)-α,α-dichloro]
inhibition at 7.41 g/ha (corn [1]; Zea mays, pre-emergence, Herbicide No. 3 0.25 G/ha + Antidote No. 1 7.41 G/ha, read-out: corn injury, percent inhibition of growth): 43%
safening of corn, assessment in words (corn [2]): did not exhibit noticeable safening effect
safening of corn, assessment in words (corn [3]; Herbicide Nos. 1 and 12, Table 7): best safening effect across four treatments
% Injury Corn (corn [4]): 50%
safening of corn, assessment in words (corn [5]; Herbicide Nos. 1 and 13, Table 9): best safening effect across four treatments
safening of corn, assessment in words (corn [6]): outperformed the antidotes (2 and 13) of other chemistries
corn injury (corn [7]): 25%

O=C1OC(=O)c2cccc3cccc1c23 [Antidote No. 2, 1H, 3H-Naphtho [1,8-cd]pyran-1,3-dione]
safening of corn, assessment in words (corn [1]; Herbicide Nos. 1-3 at the two highest rates): significantly reduced corn injury
safening of corn, assessment in words (corn [2]): significantly reduced corn injury by Herbicides No. 1 and 3 at the highest rates of application, but not at lower rates
safening of corn, assessment in words (corn [8]; Herbicide No. 1:Herbicide 6:Antidote 0.56:2.24:2.24 kg/ha): performed at commercial levels

O=C(C(Cl)Cl)N1CCOC12CCCCC2 [Antidote No. 7, 1-Oxa-4-azaspiro[4,5]decane, 4-(dichloroacetyl)-]
% Injury Corn (corn [3]; Herbicide No.1 0.56 + No.12 3.36 kg/ha + antidote 2.24 kg/ha): 20%
safening of corn, assessment in words (corn [9]): complete protection against corn injury
corn injury, assessment in words (corn [10]): slightly lower
safening of corn, assessment in words (corn [6]): outperformed the antidotes (2 and 13) of other chemistries
corn injury (corn [7]): 25%

O=C(C(Cl)Cl)N1CCCCN(C(=O)C(Cl)Cl)CCC1 [Antidote No. 8, 1,5-Diazacyclononane, 1,5-bis(dichloroacetyl)-]
safening of corn, assessment in words (corn [9]): complete protection against corn injury

CC1c2ccccc2CCN1C(=O)C(Cl)Cl (centres unmarked) [Antidote No. 12]
safening of corn, assessment in words (corn [9]): complete protection against corn injury

CC1(C(Cl)Cl)OCCO1 [Antidote No. 13, 1,3-Dioxolane, 2-(dichloromethyl)-2-methyl-]
safening of corn, assessment in words (corn [8]; Herbicide No. 1:Herbicide 6:Antidote 0.14:2.24:2.24 kg/ha): performed at commercial levels
safening of corn, assessment in words (corn [11]): best safening effect across four treatments
safening of corn, assessment in words (corn [9]): best safening effect at the highest rate
safening of corn, assessment in words (corn [7]; Herbicide No. 1 + ERADICANE EXTRA, Table 19): most efficacious antidote across all four treatments

CC(C)N(C(=O)CCl)c1ccccc1 [Herbicide No.5]
% Injury VL [12]: 15%
% Injury BYG [13]: 100%
% Injury Corn (corn [14]): 0%

CCSC(=O)N(CC(C)C)CC(C)C [Herbicide No.10]
% Injury Corn (corn [9]; in vivo): 5%

CCCOCCN(C(=O)CCl)c1c(CC)cccc1CC [Herbicide No.13]
% Injury VL [15]: 5%
% Injury BYG [16]: 100%
% Injury Corn (corn [5]; Herbicide No.13 2.24 kg/ha alone, no antidote): 0%

Cc1cccc(C)c1N(Cn1cccn1)C(=O)CCl [Herbicide No.14]
% Injury Corn (corn [6]; Herbicide No.14 3.36 kg/ha alone, no antidote): 85%
% Injury VL [17]: 65%
% Injury BYG [18]: 100%

CCOCN(C(=O)CCl)c1c(C)cccc1CC [Herbicide No. 6, 2-Chloro-N-(ethoxymethyl)-6'-ethyl-o-acetoluidide, reference compound]
injury to corn (corn [8]; Herbicide No. 6 2.24 kg/ha, without an antidote): 25%
